# Tests used:
# Assay type in all cases: cell-based, human
# RPMI-8226 = assay: NCI-60 cytotoxicity, RPMI-8226; conditions: RPMI-8226 (MM), 72 h
# Experimental: (§1) Briefly, human NCI-60 cancer cell lines were counted with a Vi-CELL Cell Viability Analyzer (Beckman Coulter), resuspended in RPMI-1640 medium containing 10% FBS and 1% penicillin/streptomycin and dispensed in wells of 96-well microplates (3000 cells per well for solid tumor and 5000 per well for blood tumor cells) using an epMotion 5075 liquid handler (Eppendorf) under a sterile condition, followed by incubation overnight at 37° C. in 5% (v/v) CO2. Cells were exposed to compounds in a dose-dependent manner for 72 h. An MTS dye (20 uL per well) was added to each well. Cell viability was determined by tetrazolium conversion to its […] dye. […] Each experiment was performed in duplicate. […] H9 cells are more sensitive to drugs, therefore instead of 72 hours, we choose 48 hour the incubation time for H9 cells.
# (§2) IC50 values were determined using […] software (Biosoft).
# CCRF-CEM = assay: NCI-60 cytotoxicity, CCRF-CEM; conditions: CCRF-CEM (Leukemia), 72 h
# Experimental: as §1, §2
# NCI-H460 = assay: NCI-60 cytotoxicity, NCI-H460; conditions: NCI-H460 (Lung), 72 h
# Experimental: as §1, §2
# HOP-92 = assay: NCI-60 cytotoxicity, HOP-92; conditions: HOP-92 (Lung), 72 h
# Experimental: as §1, §2
# HOP-62 = assay: NCI-60 cytotoxicity, HOP-62; conditions: HOP-62 (Lung), 72 h
# Experimental: as §1, §2
# KM12 = assay: NCI-60 cytotoxicity, KM12; conditions: KM12 (Colon), 72 h
# Experimental: as §1, §2
# HCT-116 = assay: NCI-60 cytotoxicity, HCT-116; conditions: HCT-116 (Colon), 72 h
# Experimental: as §1, §2
# HT29 = assay: NCI-60 cytotoxicity, HT29; conditions: HT29 (Colon), 72 h
# Experimental: as §1, §2
# SKOV3 = assay: NCI-60 cytotoxicity, SKOV3; conditions: SKOV3 (Ovarian), 72 h
# Experimental: as §1, §2
# OVCAR-8 = assay: NCI-60 cytotoxicity, OVCAR-8; conditions: OVCAR-8 (Ovarian), 72 h
# Experimental: as §1, §2
# OVCAR-5 = assay: NCI-60 cytotoxicity, OVCAR-5; conditions: OVCAR-5 (Ovarian), 72 h
# Experimental: as §1, §2
# SK-MEL-5 = assay: NCI-60 cytotoxicity, SK-MEL-5; conditions: SK-MEL-5 (Melanoma), 72 h
# Experimental: as §1, §2
# UACC-62 = assay: NCI-60 cytotoxicity, UACC-62; conditions: UACC-62 (Melanoma), 72 h
# Experimental: as §1, §2
# M14 = assay: NCI-60 cytotoxicity, M14; conditions: M14 (Melanoma), 72 h
# Experimental: as §1, §2
# T-47D = assay: NCI-60 cytotoxicity, T-47D; conditions: T-47D (Breast), 72 h
# Experimental: as §1, §2
# MCF7 = assay: NCI-60 cytotoxicity, MCF7; conditions: MCF7 (Breast), 72 h
# Experimental: as §1, §2
# HS 578T = assay: NCI-60 cytotoxicity, HS 578T; conditions: HS 578T (Breast), 72 h
# Experimental: as §1, §2
# MDA-MB-468 = assay: NCI-60 cytotoxicity, MDA-MB-468; conditions: MDA-MB-468 (Breast), 72 h
# Experimental: as §1, §2
# U251 = assay: NCI-60 cytotoxicity, U251; conditions: U251 (CNS), 72 h
# Experimental: as §1, §2
# 786-0 = assay: NCI-60 cytotoxicity, 786-0; conditions: 786-0 (Renal), 72 h
# Experimental: as §1, §2
# RXF 393 = assay: NCI-60 cytotoxicity, RXF 393; conditions: RXF 393 (Renal), 72 h
# Experimental: as §1, §2
# A498 = assay: NCI-60 cytotoxicity, A498; conditions: A498 (Renal), 72 h
# Experimental: as §1, §2
# CAKI-1 = assay: NCI-60 cytotoxicity, CAKI-1; conditions: CAKI-1 (Renal), 72 h
# Experimental: as §1, §2
# SN12C = assay: NCI-60 cytotoxicity, SN12C; conditions: SN12C (Renal), 72 h
# Experimental: as §1, §2
# TK-10 = assay: NCI-60 cytotoxicity, TK-10; conditions: TK-10 (Renal), 72 h
# Experimental: as §1, §2
# DU-145 = assay: NCI-60 cytotoxicity, DU-145; conditions: DU-145 (Prostate), 72 h
# Experimental: as §1, §2
# NCI-H226 = assay: NCI-60 cytotoxicity, NCI-H226; conditions: NCI-H226 (Lung), 72 h
# Experimental: Cells were exposed to compounds in a dose-dependent manner for 72 h. An MTS dye (20 uL per well) was added to each well. Cell viability was determined by tetrazolium conversion to its format an dye. Absorbance was monitored at 490 nm using an automated BMG PHERAstar plate reader (BMG Labtech). Each experiment was performed in duplicate. IC50 values were determined using CalcuSyn software (Biosoft).
# Absorbance was monitored at 490 nm using an automated BMG PHERAstar plate reader (BMG Labtech). […] All experiments are repeated in three independent experiments and data represented are the average of triplicate experiments.
smiles,measurement,setting,value
Cc1ccc([N+](=O)[O-])cc1S(=O)(=O)N(C)/N=C/c1cnc2ccc(Br)cn12 [Compound 1],IC50,RPMI-8226; Homo sapiens,0.077 µM
same,IC50,CCRF-CEM; Homo sapiens,3.72 µM
same,IC50,NCI-H460; Homo sapiens,0.01 µM
same,IC50,HOP-92; Homo sapiens,0.094 µM
same,IC50,HOP-62; Homo sapiens,0.008 µM
same,IC50,KM12; Homo sapiens,0.006 µM
same,IC50,HCT-116; Homo sapiens,0.001 µM
same,IC50,"HT29; Homo sapiens, HT-29",0.087 µM
same,IC50,"SKOV3; Homo sapiens, SK-OV-3",0.291 µM
same,IC50,OVCAR-8; Homo sapiens,0.059 µM
same,IC50,OVCAR-5; Homo sapiens,0.04 µM
same,IC50,SK-MEL-5; Homo sapiens,> 10 µM
same,IC50,UACC-62; Homo sapiens,0.362 µM
same,IC50,M14; Homo sapiens,0.195 µM
same,IC50,"T-47D; Homo sapiens, T47D",> 10 µM
same,IC50,MCF7; Homo sapiens,0.238 µM
same,IC50,HS 578T; Homo sapiens,0.586 µM
same,IC50,MDA-MB-468; Homo sapiens,0.103 µM
same,IC50,"U251; Homo sapiens, U-251",0.253 µM
same,IC50,786-0; Homo sapiens,0.008 µM
same,IC50,RXF 393; Homo sapiens,0.08 µM
same,IC50,A498; Homo sapiens,0.027 µM
same,IC50,CAKI-1; Homo sapiens,0.35 µM
same,IC50,SN12C; Homo sapiens,0.468 µM
same,IC50,TK-10; Homo sapiens,0.805 µM
same,IC50,DU-145; Homo sapiens,0.001 µM
O=C1NC(=NCc2cccs2)S/C1=C\c1ccc2ncccc2c1 [Compound A10],IC50,RPMI-8226,9 µM
same,IC50,CCRF-CEM,2.5 µM
same,IC50,NCI-H226,> 10 µM
same,IC50,NCI-H460,> 10 µM
same,IC50,HOP-92,6.04 µM
same,IC50,HOP-62,> 10 µM
same,IC50,KM12,> 10 µM
same,IC50,HCT-116,3.2 µM
same,IC50,HT29,> 10 µM
same,IC50,SKOV3,> 10 µM
same,IC50,OVCAR-8,> 10 µM
same,IC50,OVCAR-5,> 10 µM
same,IC50,SK-MEL-5,> 10 µM
same,IC50,UACC-62,> 10 µM
same,IC50,T-47D,6.19 µM
same,IC50,HS 578T,5.83 µM
same,IC50,MDA-MB-468,6.97 µM
same,IC50,U251,1.92 µM
same,IC50,786-0,7.77 µM
same,IC50,RXF 393,> 10 µM
same,IC50,A498,> 10 µM
same,IC50,CAKI-1,> 10 µM
same,IC50,SN12C,> 10 µM
same,IC50,TK-10,> 10 µM
same,IC50,DU-145,1.38 µM
O=C1NCCc2[nH]c(-c3ccncc3)cc21 [Compound A11],IC50,RPMI-8226,> 10 µM
same,IC50,CCRF-CEM,2.5 µM
same,IC50,NCI-H226,> 10 µM
same,IC50,HOP-92,6.4 µM
same,IC50,HOP-62,9.94 µM
same,IC50,KM12,2.28 µM
same,IC50,HCT-116,1.26 µM
same,IC50,HT29,5.04 µM
same,IC50,SKOV3,> 10 µM
same,IC50,OVCAR-8,3.6 µM
same,IC50,OVCAR-5,5.31 µM
same,IC50,SK-MEL-5,> 10 µM
same,IC50,UACC-62,6.12 µM
same,IC50,M14,3.33 µM
same,IC50,T-47D,> 10 µM
same,IC50,MCF7,3.77 µM
same,IC50,HS 578T,> 10 µM
same,IC50,MDA-MB-468,1.77 µM
same,IC50,U251,4.57 µM
same,IC50,786-0,9.3 µM
same,IC50,RXF 393,3.47 µM
same,IC50,A498,> 10 µM
same,IC50,CAKI-1,> 10 µM
same,IC50,TK-10,> 10 µM
same,IC50,DU-145,2.26 µM

# Reference: patent publication US20230190717A1, “P38 GAMMA INHIBITORS AND METHOD OF USE THEREOF” (City of Hope, priority 2017, published 2023)
